The values below are quoted from earlier work in patent US20090156647A1, “Method for maintaining physiological pH levels during intensive physical exercise” (IOVATE T. & P. INC., priority 2007, published 2009).

For the series the following is noted: about 1.5 g of HICA daily after intense exercise for 42 days.

Molecules are shown by their SMILES.

Turning to `CC(C)CC(O)C(=O)O` (centres unmarked) [HICA, 2-hydroxy-4-methylvaleric acid], the “delayed onset muscular soreness (DOMS) experienced by subjects” value is reported as “little to no DOMS” and the “total lean soft tissue mass” value is given as “statistically significant increase”.
